{"source": "paper PMC6380167", "about": "“Phosphoglycolate has profound metabolic effects but most likely no role in a metabolic DNA response in cancer cell lines” (Biochemical Journal, 2019)", "target": "T1, enolase (Oryctolagus cuniculus, UniProt P25704)", "T1 construct": "gene ENO3; purified rabbit muscle enolase (Sigma)", "T1 sequence (P25704 2-434)": "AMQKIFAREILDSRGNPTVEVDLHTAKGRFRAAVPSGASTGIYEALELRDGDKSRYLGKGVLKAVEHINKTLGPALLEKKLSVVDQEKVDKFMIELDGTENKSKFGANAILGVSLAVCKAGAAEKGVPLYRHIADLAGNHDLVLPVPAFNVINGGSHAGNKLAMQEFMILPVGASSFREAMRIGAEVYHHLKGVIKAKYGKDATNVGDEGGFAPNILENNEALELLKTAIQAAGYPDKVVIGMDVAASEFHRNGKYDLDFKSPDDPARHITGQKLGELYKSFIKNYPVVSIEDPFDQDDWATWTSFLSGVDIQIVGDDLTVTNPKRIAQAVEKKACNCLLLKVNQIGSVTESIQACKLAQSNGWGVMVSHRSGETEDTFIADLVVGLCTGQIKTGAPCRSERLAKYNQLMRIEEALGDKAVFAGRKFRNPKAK", "assay": "coupled pyruvate kinase/lactate dehydrogenase enzyme assay, NADH absorption at […] nm", "type": "biochemical"}
{"smiles": "O=C(O)COP(=O)(O)O", "note": "[phosphoglycolate]", "values": [{"measurement": "Ki", "result": "~160", "unit": "µM"}]}
